Key:
Type in all cases: in vivo
[1] = tested on: giant foxtail (Setaria faberii); test: Test A preemergence; details: Setaria faberi, pre-emergence, 240 h; for pest or weed control at 125 g/ha: 125 g ai/ha, preemergence, visual rating after approx. 10 d, 0 to 100 scale where 0 is no effect and 100 is complete control, read-out: Plant response rating, Foxtail, Giant; for pest or weed control at 500 g/ha: 500 g ai/ha, Preemergence, visual injury vs untreated controls after approximately 10 d, read-out: Foxtail, Giant plant response rating (0 to 100 scale where 0 is no effect and 100 is complete control)
Summary of the method: (§1)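 Seeds sprayed preemergence with a directed soil spray, or plants at 2 to 10 cm height and one- to two-leaf stage sprayed postemergence, with test chemicals in a non-phytotoxic solvent mixture containing surfactant, in loam soil–sand blend. Injury rated visually against untreated controls after about 10 d in greenhouse, 0 (no effect) to 100 (complete control).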

[2] = tested on: ryegrass, Italian (Italian ryegrass, Lolium multiflorum); test: Test A preemergence; details: Lolium multiflorum, pre-emergence, 240 h; for pest or weed control at 125 g/ha: 125 g ai/ha, preemergence, visual rating after approx. 10 d, 0 to 100 scale where 0 is no effect and 100 is complete control, read-out: Plant response rating, Ryegrass, Italian; for pest or weed control at 500 g/ha: 500 g ai/ha, Preemergence, visual injury vs untreated controls after approximately 10 d, read-out: Ryegrass, Italian plant response rating (0 to 100 scale where 0 is no effect and 100 is complete control)
Summary of the method: as §1

[3] = tested on: pigweed (Amaranthus retroflexus); test: Test A preemergence; details: Amaranthus retroflexus, pre-emergence, 240 h; for pest or weed control at 125 g/ha: 125 g ai/ha, preemergence, visual rating after approx. 10 d, 0 to 100 scale where 0 is no effect and 100 is complete control, read-out: Plant response rating, Pigweed; for pest or weed control at 500 g/ha: 500 g ai/ha, Preemergence, visual injury vs untreated controls after approximately 10 d, read-out: Pigweed plant response rating (0 to 100 scale where 0 is no effect and 100 is complete control)
[4] = tested on: ragweed (common ragweed, Ambrosia elatior); test: Test A preemergence; details: Ambrosia artemisiifolia, pre-emergence, 240 h; for pest or weed control at 125 g/ha: 125 g ai/ha, preemergence, visual rating after approx. 10 d, 0 to 100 scale where 0 is no effect and 100 is complete control, read-out: Plant response rating, Ragweed; for pest or weed control at 500 g/ha: 500 g ai/ha, Preemergence, visual injury vs untreated controls after approximately 10 d, read-out: Ragweed plant response rating (0 to 100 scale where 0 is no effect and 100 is complete control)
Summary of the method: as §1

Kochia (Kochia scoparia) [5] = test: Test A preemergence; details: Bassia scoparia, pre-emergence, 240 h; for pest or weed control at 125 g/ha: 125 g ai/ha, preemergence, visual rating after approx. 10 d, 0 to 100 scale where 0 is no effect and 100 is complete control, read-out: Plant response rating, Kochia; for pest or weed control at 500 g/ha: 500 g ai/ha, Preemergence, visual injury vs untreated controls after approximately 10 d, read-out: Kochia plant response rating (0 to 100 scale where 0 is no effect and 100 is complete control)
Summary of the method: as §1

[6] = tested on: barnyardgrass (Echinochloa crus-galli); test: Test A preemergence; details: Echinochloa crus-galli, pre-emergence, 240 h; for pest or weed control at 125 g/ha: 125 g ai/ha, preemergence, visual rating after approx. 10 d, 0 to 100 scale where 0 is no effect and 100 is complete control, read-out: Plant response rating, Barnyardgrass; for pest or weed control at 500 g/ha: 500 g ai/ha, Preemergence, visual injury vs untreated controls after approximately 10 d, read-out: Barnyardgrass plant response rating (0 to 100 scale where 0 is no effect and 100 is complete control)
Summary of the method: as §1

[7] = tested on: giant foxtail (Setaria faberii); test: Test A postemergence; details: Setaria faberi, post-emergence, 240 h, 125 g ai/ha, postemergence; visual injury after approximately 10 d; 0 to 100 scale (0 no effect, 100 complete control); read-out: Plant response rating, Foxtail, Giant
Summary of the method: as §1

[8] = tested on: ryegrass, Italian (Italian ryegrass, Lolium multiflorum); test: Test A postemergence; details: Lolium multiflorum, post-emergence, 240 h, 125 g ai/ha, postemergence; visual injury after approximately 10 d; 0 to 100 scale (0 no effect, 100 complete control); read-out: Plant response rating, Ryegrass, Italian
Summary of the method: as §1

Kochia (Kochia scoparia) [9] = test: Test A postemergence; details: Bassia scoparia, post-emergence, 240 h, 125 g ai/ha, postemergence; visual injury after approximately 10 d; 0 to 100 scale (0 no effect, 100 complete control); read-out: Plant response rating, Kochia
Summary of the method: as §1

[10] = tested on: blackgrass (Alopecurus myosuroides); test: Test A postemergence; details: Alopecurus myosuroides, post-emergence, 240 h, 125 g ai/ha, postemergence; visual injury after approximately 10 d; 0 to 100 scale (0 no effect, 100 complete control); read-out: Plant response rating, Blackgrass
Summary of the method: as §1

[11] = tested on: ducksalad (Heteranthera limosa); test: Test B flooded paddy test; details: Heteranthera limosa, Flood, 250 g ai/ha; scale of 0 to 100 where 0 is no effect and 100 is complete control; read-out: Ducksalad plant response rating
Summary of the method: (§2)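 Greenhouse paddy pots with 2-leaf stage plants received compound by direct addition to floodwater 3 cm deep, kept at that level. Scored visually at 13–15 d versus controls (0 no effect; 100 complete control).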

rice (Oryra sativa) = test: Test B flooded paddy test; details: Oryza sativa, Flood, 250 g ai/ha; scale of 0 to 100 where 0 is no effect and 100 is complete control; read-out: Rice plant response rating
Summary of the method: as §2

[12] = tested on: sedge, umbrella (small-flower umbrella sedge, Cyperus difformis); test: Test B flooded paddy test; details: Cyperus difformis, Flood, 250 g ai/ha; scale of 0 to 100 where 0 is no effect and 100 is complete control; read-out: Sedge, Umbrella plant response rating
Summary of the method: as §2

[13] = tested on: barnyardgrass (Echinochloa crus-galli); test: Test B flooded paddy test; details: Echinochloa crus-galli, Flood, 250 g ai/ha; scale of 0 to 100 where 0 is no effect and 100 is complete control; read-out: Barnyardgrass plant response rating
Summary of the method: as §2

Row | Compound | pest or weed control at 125 g/ha [1] | pest or weed control at 500 g/ha [1] | pest or weed control at 125 g/ha [2] | pest or weed control at 500 g/ha [2] | pest or weed control at 125 g/ha [3] | pest or weed control at 500 g/ha [3] | pest or weed control at 125 g/ha [4] | pest or weed control at 500 g/ha [4] | pest or weed control at 125 g/ha (Kochia (Kochia scoparia) [5]) | pest or weed control at 500 g/ha (Kochia (Kochia scoparia) [5]) | pest or weed control at 125 g/ha [6] | pest or weed control at 500 g/ha [6] | pest or weed control at 125 g/ha [7] | pest or weed control at 125 g/ha [8] | pest or weed control at 125 g/ha (Kochia (Kochia scoparia) [9]) | pest or weed control at 125 g/ha [10] | pest or weed control at 250 g/ha [11] | pest or weed control at 250 g/ha (rice (Oryra sativa)) | pest or weed control at 250 g/ha [12] | pest or weed control at 250 g/ha [13]
1 | CN1C[C@H](c2nccs2)[C@@H](C(=O)Nc2cccc(F)c2F)C1=O [Compound 774] | 0% | 0% | 0% | 0% | 0% | 0% | 0% | 0% | 0% | 0% | 0% | 0% | 0% | 0% | 0% | 0% | 0% | 0% | 0% | 0%
2 | O=C1NC[C@H](c2ccc3c(c2)CCO3)[C@H]1C(=O)Nc1ccccc1F [Compound 786] | 90% | 90% | 0% | 0% | 0% | 0% | 0% | 0% | 0% | 0% | 80% | 90% | 40% | 0% | 0% | 0% | 70% | 0% | 40% | 0%

Reference: patent publication US12077503B2, “Substituted cyclic amides and their use as herbicides” (FMC CORPORATION, priority 2015, dated 2024)
